Several values for one entry are separate records, joined by “and”; a condition that tells them apart may be missing. Equal values may be shown once.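 Dose response: 5 concentrations. Exposure: 48 h. Format: 96-well plates. Endpoint: linear interpolation; highest concentration if not reached. GI50: concentration for 50% inhibition of growth. TGI is the concentration that stops growth completely.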
Tests used:
Assay in all cases: DTP human tumour cell line panel, 48 h
MOLT-4 leukemia = test system: MOLT-4 leukemia
MDA-MB-435 = test system: MDA-MB-435
DU-145 prostate = test system: DU-145 prostate
PC-3 prostate = test system: PC-3 prostate
SR leukemia = test system: SR leukemia
TK-10 renal = test system: TK-10 renal
MALME-3M melanoma = test system: MALME-3M melanoma
COLO 205 colon = test system: COLO 205 colon
KM12 colon = test system: KM12 colon
A498 renal = test system: A498 renal

Compound	GI50 (MOLT-4 leukemia)	TGI (MOLT-4 leukemia)	GI50 (MDA-MB-435)	TGI (MDA-MB-435)	GI50 (DU-145 prostate)	TGI (DU-145 prostate)	GI50 (PC-3 prostate)	TGI (PC-3 prostate)	GI50 (SR leukemia)	TGI (SR leukemia)	GI50 (TK-10 renal)	TGI (TK-10 renal)	GI50 (MALME-3M melanoma)	TGI (MALME-3M melanoma)	GI50 (COLO 205 colon)	TGI (COLO 205 colon)	GI50 (KM12 colon)	TGI (KM12 colon)	GI50 (A498 renal)	TGI (A498 renal)
Nc1ccn([C@H]2C[C@@H](O)[C@@H](CO)S2)c(=O)n1	> 100 µM	> 100 µM	16.9 µM	> 100 µM	> 100 µM	> 100 µM	> 100 µM	> 100 µM	> 100 µM	> 100 µM	> 100 µM	> 100 µM	> 100 µM	> 100 µM	> 89.8 µM	> 100 µM	> 100 µM	> 100 µM	> 100 µM	> 100 µM
O=C(Nc1cnn2ccc(N3CCC[C@@H]3c3cc(F)ccc3F)nc12)N1CC[C@H](O)C1	> 100 µM	> 100 µM	> 100 µM	> 100 µM	> 100 µM	> 100 µM	> 100 µM	> 100 µM	> 100 µM	> 100 µM	> 100 µM	> 100 µM	> 100 µM	> 100 µM	> 100 µM	> 100 µM	0.0122 µM	> 100 µM	> 100 µM	> 100 µM
CC[N+](CC)=c1ccc2nc3c(cc(NCc4ccccc4)c4ccccc43)oc-2c1	0.346 µM	3.17 µM	0.18 µM	0.352 µM	0.155 µM	0.291 µM	0.264 µM	1.63 µM	0.27 µM	0.999 µM	0.671 µM	2.29 µM	0.172 µM	0.358 µM	0.153 µM	0.311 µM	0.292 µM	1.32 µM	0.751 µM	4.62 µM
C=C(CN1CCN(c2cccc(C(F)(F)F)c2)CC1)c1ccc(C(=O)Nc2ccccc2N)cc1	0.13 µM	1.29 µM	0.156 µM	0.554 µM	1.36 µM	7.23 µM	0.615 µM	> 50 µM	0.0568 µM	> 50 µM	0.807 µM	5.31 µM	–	–	3.45 µM	> 23 µM	0.486 µM	5.15 µM	0.005 µM	5.18 µM
Cc1ccc(N=C2CSc3nnc(-c4csc5c4CCCC5)n3N2)cc1	0.213 µM	> 50 µM	0.0894 µM	0.237 µM	0.209 µM	> 50 µM	0.27 µM	> 50 µM	0.179 µM	> 50 µM	> 50 µM	> 50 µM	26.5 µM	> 50 µM	0.191 µM	> 50 µM	0.226 µM	> 50 µM	0.0988 µM	0.412 µM
COc1cc2cc(Oc3ccc(NC(=O)Nc4ccccc4)cc3)c(C)nc2cc1OCCN1CCCCC1	4.98 µM	11.7 µM	5.55 µM	10.1 µM	5.92 µM	11.4 µM	4.49 µM	9.83 µM	0.934 µM	2.66 µM	8.3 µM	17.3 µM	5.96 µM	10.9 µM	6.25 µM	13.1 µM	6.8 µM	14.3 µM	4.75 µM	9.3 µM
NCCNCC(O)CO (configuration not stated)	–	> 100 µM	–	> 100 µM	–	> 100 µM	–	> 100 µM	–	> 100 µM	–	> 100 µM	–	> 100 µM	–	> 100 µM	–	> 100 µM	–	> 100 µM
Cn1ccc(=Nc2ccc(NC(=O)c3ccc(N=c4ccn(C)c5ccc([N+](=O)[O-])cc45)cc3)cc2)cc1	> 100 µM	> 100 µM	6.53 µM	> 100 µM	4.43 µM	> 100 µM	9.2 µM	> 100 µM	33 µM	> 100 µM	> 100 µM	> 100 µM	2.41 µM	37.9 µM	3.94 µM	> 100 µM	7.26 µM	> 100 µM	> 100 µM	> 100 µM
COc1cc(/C=C/C(=O)c2cc(F)c(Cl)cc2Cl)cc(OC)c1OC	12.9 µM	52.9 µM	28.1 µM	> 100 µM	68.6 µM	> 100 µM	12.5 µM	85.8 µM	5.23 µM	39.1 µM	31 µM	> 100 µM	10.8 µM	37.7 µM	14.7 µM	45.5 µM	10.5 µM	26.4 µM	> 100 µM	> 100 µM
O=C1/C(=C/c2ccccc2)SC(=Nc2ccccc2)N1Nc1ccccc1	5.14 µM	> 100 µM	15.1 µM	48 µM	32.2 µM	> 100 µM	4.49 µM	> 100 µM	21.3 µM	> 100 µM	36.5 µM	> 100 µM	19.8 µM	66.8 µM	20.3 µM	> 100 µM	19 µM	> 100 µM	–	–
C#CCN1CCN(C(=S)N/N=C(\C)c2ccccn2)CC1	0.136 µM	2.28 µM	–	3.39 µM and 4.03 µM	1.19 µM	4.74 µM and 6.36 µM	0.0121 µM	2.48 µM and 1.45 µM	–	2.36 µM	1.58 µM	5.5 µM and 6.36 µM	0.496 µM	5.76 µM and 4.6 µM	0.00362 µM	2.3 µM and 0.915 µM	0.4 µM	4.6 µM and 6.33 µM	3.31 µM	5.47 µM and 5.21 µM
CCOC(=O)/C=C1\SC(=Nc2ccc(C#N)cc2)N(CCN2C(=O)/C(=C/C(=O)OCC)SC2=Nc2ccc(C#N)cc2)C1=O	1.15 µM	> 100 µM	3.21 µM	16 µM	3.04 µM	13.6 µM	1.28 µM	13.4 µM	0.303 µM	> 100 µM	14.8 µM	36.6 µM	11 µM	30 µM	3.05 µM	11.5 µM	1.17 µM	5.48 µM	6.82 µM	20.5 µM
N#C/C(=C/C=C(\Cl)c1ccc(Cl)cc1)C(N)=O	0.66 µM	> 39.8 µM	1.93 µM	4.12 µM	3.31 µM	12.5 µM	2.18 µM	5.55 µM	2.26 µM	20.4 µM	1.61 µM	3.31 µM	1.48 µM	3.55 µM	5.24 µM	> 55.8 µM	2.1 µM	4.69 µM	13.2 µM	27.7 µM
C/C=C(\C)C(=O)O[C@@H]1C(O)[C@H]2OC(COC(=O)CCC(=O)CCCCCC[C@H](CCCCC)O[C@@H]3OC(C)[C@H](OC(C)=O)C(O)[C@H]3O2)[C@H]1OC(=O)/C=C/c1ccccc1 (some centres not stated)	3.28 µM	> 100 µM	< 0.01 µM	4.68 µM	0.0201 µM	> 44.2 µM	< 0.0132 µM	16.7 µM	< 0.012 µM	3.18 µM	0.0235 µM	5.98 µM	0.0558 µM	6.48 µM	< 0.01 µM	1.79 µM	< 0.0138 µM	> 100 µM	0.12 µM	5.59 µM
COC(=O)[C@]12CC[C@@H](C)[C@H](C)[C@@H]1C1=CC[C@@H]3[C@@]4(C)C(C=O)=C[C@@](C)(COC(C)=O)[C@@H]4[C@H](O)C[C@@]3(C)[C@]1(C)CC2	1.34 µM	5.02 µM	2.09 µM	5.04 µM	1.91 µM	3.93 µM	1.73 µM	5.74 µM	1.84 µM	5.4 µM	2.73 µM	8.77 µM	1.76 µM	3.63 µM	2.14 µM	4.96 µM	2.35 µM	6.93 µM	2.6 µM	10.2 µM
CC(C)(C)OC(=O)NCCCCCCCCn1c2c(c3ccccc3c1=O)C(=O)c1ccccc1-2	> 50 µM	> 50 µM	> 50 µM	> 50 µM	> 50 µM	> 50 µM	> 50 µM	> 50 µM	> 34.8 µM	> 50 µM	11.7 µM	30.7 µM	> 15.9 µM	> 43.7 µM	> 50 µM	> 50 µM	> 40.4 µM	> 50 µM	15.5 µM	> 47.7 µM
COc1ccc(C2NCCc3c2[nH]c2ccccc32)cc1CN1CCN(c2ccc(F)cc2)CC1 (configuration not stated)	1.97 µM	5.25 µM	1.66 µM	3.06 µM	2.76 µM	7.81 µM	2.21 µM	5.35 µM	1.78 µM	5.28 µM	3.2 µM	9.65 µM	1.88 µM	3.49 µM	1.93 µM	3.65 µM	1.86 µM	3.33 µM	0.399 µM	4.21 µM
CO[C@H]1[C@H](O)[C@H](O[C@H]2CC[C@@]3(C)[C@H](CC[C@@H]4[C@@H]3CC[C@]3(C)[C@@H](C5=CC(=O)OC5)CC[C@]43O)C2)O[C@@H](C)[C@@H]1O	–	0.00766 µM and < 0.0265 µM	–	< 0.0001 µM	–	< 0.0001 µM	0.00525 µM	0.524 µM	< 0.0001 µM	0.0273 µM	–	0.00345 µM	–	0.000721 µM	–	0.00509 µM and 0.0316 µM	–	0.0125 µM	–	0.0252 µM
COc1ccc2cc(C(=O)/C=C/c3cccc(Cl)c3Cl)ccc2c1	27.5 µM	> 100 µM	1.44 µM	29.6 µM	9.57 µM	> 55.9 µM	12.4 µM	> 81.9 µM	0.806 µM	> 100 µM	18.6 µM	> 86.3 µM	> 100 µM	> 100 µM	24.7 µM	> 71.6 µM	8.08 µM	64.3 µM	18.1 µM	32.1 µM
CN1CCN(c2ccc(-c3cnc4c(-c5csc6ccccc56)cnn4c3)cc2)CC1	4.1 µM	> 15 µM	11.7 µM	> 15 µM	5.59 µM	> 15 µM	5.59 µM	> 15 µM	3.03 µM	> 15 µM	8.37 µM	> 15 µM	3.04 µM	7.68 µM	7.28 µM	> 15 µM	4.59 µM	> 15 µM	4.2 µM	> 15 µM
O=C(Oc1ccc([N+](=O)[O-])cc1)N1CCN(Cc2cccc(Oc3ccccc3)c2)CC1	38.9 µM	> 100 µM	> 100 µM	> 100 µM	> 100 µM	> 100 µM	> 69.6 µM	> 100 µM	22.5 µM	> 100 µM	> 75.9 µM	> 100 µM	> 95.3 µM	> 100 µM	> 83.5 µM	> 100 µM	62.5 µM	> 100 µM	> 47.6 µM	> 100 µM
Cc1cc(=O)oc2cc(OC(=O)Nc3ccc(Cl)c(Cl)c3)ccc12	–	44.4 µM	–	41.2 µM	–	90.5 µM	–	68.2 µM	–	46.3 µM	–	> 100 µM	–	51.8 µM	–	96.5 µM	–	84 µM	–	32.6 µM
Cc1cc(S(=O)(=O)Nc2nc3ccsc3c(=O)n2Cc2ccco2)c(S)cc1Cl	19.4 µM	84.2 µM	> 100 µM	> 100 µM	> 100 µM	> 100 µM	> 100 µM	> 100 µM	9.95 µM	29.7 µM	> 100 µM	> 100 µM	> 100 µM	> 100 µM	> 100 µM	> 100 µM	> 100 µM	> 100 µM	> 100 µM	> 100 µM
CCCCn1c2c(c3ccccc3c1=O)C(=O)c1ccccc1-2	–	–	–	> 100 µM	–	> 100 µM	–	> 100 µM	–	> 100 µM	–	> 100 µM	–	> 100 µM	–	> 100 µM	–	> 100 µM	–	> 100 µM
C=C1C(=O)O[C@H]2[C@H]1CC/C(COC(=O)C(=O)c1c[nH]c3ccc(OC)cc13)=C\CC[C@@]1(C)O[C@@H]21	5.31 µM	16 µM	5.52 µM	10.8 µM	7.99 µM	17 µM	6.08 µM	11.1 µM	3.29 µM	29 µM	6.41 µM	14.5 µM	6.43 µM	11 µM	–	> 20.6 µM	7.82 µM	14.2 µM	–	–
